Results published in ChEMBL document CHEMBL1201862, “PubChem BioAssay data set” (2004).
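Dose response: 5 concentrations. Exposure: 48 h. Format: 96-well plates. Endpoint: linear interpolation; highest concentration if not reached. GI50: concentration for 50% inhibition of growth.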 Calls of active or inactive are those of the source. No stated cut-off is given here; in the data, active = GI50 up to about 1.1 µM and inactive = higher.

Columns and labels:
Test in all cases: NCI tumour cell line growth inhibition, 48 h
[1] = system: A498
[2] = system: KM12
[3] = system: IGROV-1
[4] = system: OVCAR-4
[5] = system: MOLT-4
[6] = system: UACC-62
[7] = system: TK-10
[8] = system: SK-MEL-28
[9] = system: RXF 393
[10] = system: NCI-H226
[11] = system: OVCAR-5
[12] = system: Malme-3M
[13] = system: ACHN
[14] = system: SF-539
[15] = system: HOP-92
[16] = system: SK-MEL-5
[17] = system: SK-OV-3
[18] = system: UACC-257
[19] = system: NCI-H522

Measured: GI50

Cc1ccc(/C=C/C(=O)CCN(C)C)cc1
inactive: [1] > 100 µM | [2] 4.62 µM | [3] 20.8 µM | [4] 15.2 µM | [5] 23.2 µM | [6] 14.6 µM | [7] 16.5 µM | [8] 19.4 µM | [9] 23.1 µM | [10] 19.2 µM | [11] 33.8 µM | [12] 20.7 µM | [13] 18.5 µM | [14] 16.9 µM | [15] 19.5 µM | [16] 19.4 µM | [17] 45 µM | [18] 14.7 µM

CC(C)(c1ccccc1)c1ccc(OC#N)cc1
inactive: [1] > 100 µM | [2] > 75 µM | [3] > 100 µM | [4] 71.4 µM | [5] 35.2 µM | [6] > 95.1 µM | [7] > 100 µM | [8] > 70.5 µM | [9] 46.1 µM | [10] 51.5 µM | [11] > 100 µM | [19] 15.2 µM | [12] > 100 µM | [13] 68.4 µM | [14] 38.1 µM | [15] 37.3 µM | [16] 48.8 µM | [17] 98.6 µM | [18] > 100 µM

CN(C)c1ccc(/C=N/N=C2\C(=O)Nc3c(Cl)cc(Cl)cc32)cc1
inactive: [1] 32.2 µM | [2] 10.1 µM | [3] 24.2 µM | [4] > 100 µM | [5] 16.4 µM | [6] 42.2 µM | [7] 94.8 µM | [8] 47.3 µM | [9] 59.3 µM | [10] > 100 µM | [11] > 100 µM | [12] 25.2 µM | [13] 97.9 µM | [14] 39.5 µM | [15] 92.5 µM | [16] 41.2 µM | [17] > 100 µM | [18] > 100 µM

O=C1c2ccccc2C2CCC1c1ccccc12 (stereo not given)
inactive: [1] 58.6 µM | [2] 31.6 µM | [3] 62.2 µM | [4] 30.1 µM | [5] 18 µM | [6] 34.6 µM | [7] 34.9 µM | [8] 32.9 µM | [9] 24.4 µM | [10] 45.6 µM | [11] > 100 µM | [19] 25 µM | [12] 18.3 µM | [13] 25.6 µM | [14] 64 µM | [15] 20.3 µM | [16] 16.3 µM | [17] 41.5 µM | [18] 25.3 µM

CC(C)Cc1cc(CCC(=O)Nc2ccccc2[N+](=O)[O-])nc(NC#N)n1
inactive: [1] > 100 µM | [2] > 100 µM | [3] > 100 µM | [4] > 100 µM | [5] > 100 µM | [6] > 100 µM | [7] > 100 µM | [8] > 100 µM | [9] > 100 µM | [10] > 100 µM | [11] > 100 µM | [19] > 100 µM | [12] > 100 µM | [13] > 100 µM | [14] > 100 µM | [15] > 100 µM | [16] > 100 µM | [17] > 100 µM | [18] > 100 µM

COC(=O)C(C#N)=C1c2ccccc2Oc2ccccc21
inactive: [1] > 100 µM | [2] > 100 µM | [3] 64.3 µM | [4] 43.8 µM | [5] 35.4 µM | [6] 35.7 µM | [7] > 100 µM | [8] 56.6 µM | [9] 38.5 µM | [10] 65.5 µM | [11] > 100 µM | [19] 24.9 µM | [12] 93.3 µM | [13] 66.7 µM | [14] 75.7 µM | [15] 30.5 µM | [16] 33.9 µM | [17] 42.1 µM | [18] > 100 µM

CCN(CC)CCC1CC/C(=C\c2ccc(OC)cc2)C1=O (stereo not given)
inactive: [1] 74.8 µM | [2] > 100 µM | [3] > 100 µM | [4] > 100 µM | [5] 59.6 µM | [6] 17.5 µM | [7] > 100 µM | [8] 74.8 µM | [9] 42.3 µM | [10] > 100 µM | [11] > 100 µM | [19] 60.7 µM | [12] > 100 µM | [13] > 100 µM | [14] > 100 µM | [15] 39.5 µM | [16] 23.6 µM | [18] 32 µM
